Patent publication US20250074902A1, “FUSED BICYCLIC HETEROARYL AMIDE COMPOUND AS PROTEIN AGGREGATION INHIBITOR” (SHANGHAI JINGXIN BIOMEDICAL CO., LTD., priority 2021, published 2025)

Target: T1, α-synuclein (Homo sapiens, UniProt P37840)
T1 construct: purchased Sino Biological
Experiment: Detection of the ability of compounds to inhibit α-synuclein self-aggregation by HPLC
Type: biochemical
Conditions: test compound 200 μg/mL, α-synuclein 250 μg/ml, 37° C., 9 days, HPLC peak area of α-synuclein multimers vs model group; for inhibition at 200 µg/mL: read-out: inhibition rate (%)
Protocol: The test compound (for poorly soluble compounds, dissolve with an appropriate amount of DMSO first) and fresh α-synuclein monomers (purchased from Sino Biological) were added to pure water to a final protein concentration of 250 μg/ml, and the concentration of the test compound was 200 μg/mL, followed by incubation at 37° C. for 9 days. The peak area of α-synuclein multimers after incubation was detected by HPLC and the inhibition rate was calculated. […] Inhibition rate=(peak area of model group−peak area of example group)/peak area of model group×100%.

inhibition at 200 µg/mL [%] | inhibition rate (%) | SMILES
92.9 |  | CCCCC(Cc1c[nH]c2ccccc12)NC(=O)c1cc2ccc(N3CC(C)(O)C3)cc2s1 (centres unmarked) [Example 49, N-(1-(1H-indol-3-yl)hexane-2-yl)-6-(3-hydroxy-3-methylazetidine-1-yl) benzo[b]-thiophene-2-carboxamide]
82.3 |  | CCCCC(Cc1c[nH]c2ccccc12)NC(=O)c1cc2ccc(N3CCN(S(C)(=O)=O)CC3)cc2s1 (centres unmarked) [Example 45, N-[1-(1H-indol-3-yl)hexane-2-yl]-6-(4-methylsulfonylpiperazine-1-yl)-benzothiophene-2-carboxamide]
93.5 |  | CCCCC(Cc1c[nH]c2ccccc12)NC(=O)c1cc2ccc(N3CCC(O)CC3)cc2s1 (centres unmarked) [Example 19, N-(1-(1H-indol-3-yl)hexane-2-yl)-6-(4-hydroxypiperidin-1-yl) benzo[b]thiophene-2-carboxamide]
89.7 |  | CCCCC(Cc1c[nH]c2ccccc12)NC(=O)c1cc2ccc(N3CCOCC3)cc2s1 (centres unmarked) [Example 23, N-(1-(1H-indol-3-yl)hexane-2-yl)-6-morpholinobenzo[b]thiophene-2-carboxamide]
94.4 |  | CCCCC(Cc1c[nH]c2ccccc12)NC(=O)c1cc2ccc(N3CCN(C(C)C)CC3)cc2s1 (centres unmarked) [Example 13, N-(1-(1H-indol-3-yl)hexane-2-yl)-6-(4-isopropylpiperazin-1-yl) benzo[b]thiophene-2-carboxamide]
86.9 |  | CCCCC(Cc1c[nH]c2ccccc12)NC(=O)c1cc2ccc(N3CCC(C)CC3)cc2s1 (centres unmarked) [Example 12, N-(1-(1H-indol-3-yl)hexane-2-yl)-6-(4-methylpiperidin-1-yl) benzo[b]thiophene-2-carboxamide]
96.5 |  | CCCCC(Cc1c[nH]c2ccccc12)NC(=O)c1cc2ccc(N3CCC(C)(O)CC3)cc2s1 (centres unmarked) [Example 48, N-(1-(1H-indol-3-yl)hexane-2-yl)-6-(4-hydroxy-4-methylpiperidin-1-yl) benzo[b]-thiophene-2-carboxamide]
90.3 |  | CCCCC(Cc1c[nH]c2ccccc12)NC(=O)c1cc2ccc(N3CCC(C)(O)C3)cc2s1 (centres unmarked) [Example 51, N-(1-(1H-indol-3-yl)hexane-2-yl)-6-(3-hydroxy-3-methylpyrrolidin-1-yl) benzo[b]-thiophene-2-carboxamide]
95.7 |  | CCCCC(Cc1c[nH]c2ccccc12)NC(=O)c1cc2ccc(N3CC4(C3)CC(C)(O)C4)cc2s1 (centres unmarked) [Example 50, N-(1-(1H-indol-3-yl)hexane-2-yl)-6-(6-hydroxy-6-methyl-2-azaspiro [3.3]heptane-2-yl) benzo[b]thiophene-2-carboxamide]
95.6 |  | CCCCC(Cc1c[nH]c2ccccc12)NC(=O)c1cc2ccc(N3CCC4(CC3)COC4)cc2s1 (centres unmarked) [Example 20, N-[1-(1H-indol-3-yl)hexane-2-yl]-6-(2-oxa-7-azaspiro [3.5]nonan-7-yl)-1-benzothiophene-2-carboxamide]
78.9 |  | CCCCC(Cc1c[nH]c2ccccc12)NC(=O)c1cc2ccc(N3CCN(C)C(=O)C3)cc2s1 (centres unmarked) [Example 46, N-[1-(1H-indol-3-yl)hexane-2-yl]-6-(4-methyl-3-oxopiperazin-1-yl)-benzothiophene-2-carboxamide]
83.8 |  | CCCCC(Cc1c[nH]c2ccccc12)NC(=O)c1cc2ccc(N3CCC4(CC3)CN(C)C4)cc2s1 (centres unmarked) [Example 22]

More lines, now with the values behind:

SMILES | inhibition at 200 µg/mL [%] | inhibition rate (%)
CCCCC(Cc1c[nH]c2ccccc12)NC(=O)c1cc2ccc(N3CCN(C)CC3)cc2n1C (centres unmarked) [Example 36, N-[1-(1H-indol-3-yl)hexyl-2-yl]-1-methyl-6-(4-methylpiperazin-1-yl)-1H-indole-2-carboxamide] | 85.3 | 
CCCCC(Cc1c[nH]c2ccccc12)NC(=O)c1cc2ccc(N3CCN(C)CC3)cc2o1 (centres unmarked) [Example 27, N-(1-(1H-indole-3-yl)hexan-2-yl)-6-(4-methylpiperazine-1-yl) benzofuran-2-carboxamide] |  | 87.6
CCCCC(Cc1c[nH]c2ccccc12)NC(=O)c1cc2cnc(N3CCN(C)CC3)nc2s1 (centres unmarked) [Example 29, N-(1-(1H-indole-3-yl)hexane-2-yl)-2-(4-methylpiperazine-1-yl) thieno [2,3-d]pyrimidine-6-carboxamide] | 96.7 | 
CCCCC(Cc1c[nH]c2ccccc12)NC(=O)c1cc2ccc(N3CCN(c4ccccc4)CC3)cc2s1 (centres unmarked) [Example 14, N-(1-(1H-indol-3-yl)hexane-2-yl)-6-(4-phenylpiperazine-1-yl) benzo[b]thiobene-2-carboxamide] | 73.5 | 
CCCCC(Cc1c[nH]c2ccc(C)cc12)NC(=O)c1cc2ccc(N3CCN(C)CC3)cc2s1 (centres unmarked) [Example 30, N-(1-(5-methyl-1H-indole-3-yl)hexane-2-yl)-6-(4-methylpiperazine-1-yl) benzo[b]thiophene-2-carboxamide] | 71.4 | 
CC(C)/C=C/C(Cc1c[nH]c2ccccc12)NC(=O)c1cc2ccc(N3CCN(C)CC3)cc2s1 (centres unmarked) [Example 40, (E)-N-(1-(1H-indol-3-yl)-S-methyl-3-hexene-2-yl)-6-(4-methylpiperazin-yl) benzo[b]-thiophene-2-carboxamide] | 76.8 | 
CCCCC(Cc1c[nH]c2ccccc12)NC(=O)c1cc2ccc(N3CCN(C)CC3)nc2s1 (centres unmarked) [Example 2, N-[1-(1H-indol-3-yl)hexyl-2-yl]-6-(4-methylpiperazin-1-yl) thiophene[2,3-b]pyridine-2-carboxamide] | 86.8 | 
CCCCC(Cc1c[nH]c2ccccc12)NC(=O)c1cc2cc(F)c(N3CCN(C)CC3)cc2s1 (centres unmarked) [Example 5, N-(1-(1H-indol-3-yl)hexane-2-yl)-5-fluoro-6-(4-methylpiperazin-1-yl) benzo[b]thiophene-2-carboxamide] | 98.6 | 
CCOCC(Cc1c[nH]c2ccccc12)NC(=O)c1cc2ccc(N3CCN(C)CC3)cc2s1 (centres unmarked) [Example 39, N-(1-ethoxy-3-(1H-indol-3-yl)propane-2-yl)-6-(4-methylpiperazin-1-yl) benzo[b]-thiophene-2-carboxamide] | 92.6 | 
CN(C)CCC(Cc1c[nH]c2ccccc12)NC(=O)c1cc2ccc(N3CCN(C)CC3)cc2s1 (centres unmarked) [Example 38] | 78.3 | 
COCCC(Cc1c[nH]c2ccccc12)NC(=O)c1cc2ccc(N3CCN(C)CC3)cc2s1 (centres unmarked) [Example 34, N-[1-(CH-indol-3-yl)-4-methoxybutyl-2-yl]-6-(4-methylpiperazin-1-yl)-1-benzothiophene-2-carboxamide] | 97.5 | 
CCCCC(Cc1c[nH]c2ccccc12)NC(=O)c1cc2cccc(N3CCN(C)CC3)c2s1 (centres unmarked) [Example 10, N-(1-(1H-indol-3-yl)hexane-2-yl)-7-(4-methylpiperazin-1-yl) benzo[b]thiophene-2-carboxamide] | 73.1 | 
CCCCC(Cc1c[nH]c2ccccc12)NC(=O)c1cc2cnc(N3CCC(C)CC3)cc2s1 (centres unmarked) [Example 18, N-(1-(1H-indol-3-yl)hexane-2-yl)-6-(4-methylpiperidin-1-yl) thieno[3,2-c]pyridine-2-carboxamide] | 76.9 | 
CCCCC(Cc1c[nH]c2ccccc12)NC(=O)c1nc2ccc(N3CCN(C)CC3)cc2s1 (centres unmarked) [Example 4, N-(1-(1H-indol-3-yl)hexane-2-yl)-6-(4-methylpiperazin-1-yl) benzo[d]thiazole-2-carboxamide] | 90.6 | 
CCCCC(Cc1c[nH]c2ccccc12)NC(=O)c1cc2c(F)cc(N3CCN(C)CC3)cc2s1 (centres unmarked) [Example 6, N-(1-(1H-indol-3-yl)hexane-2-yl)-4-fluoro-6-(4-methylpiperazin-1-yl) benzo[b]thiophene-2-carboxamide] | 97.8 | 
CC/C=C/C(Cc1c[nH]c2ccccc12)NC(=O)c1cc2ccc(N3CCN(C)CC3)cc2s1 (centres unmarked) [Example 37, (E)-N-(1-(1H-indol-3-yl)-3-hexene-2-yl)-6-(4-methylpiperazin-1-yl) benzo-[b]thiophene-2-carboxamide] | 86.7 | 
CCCCC(Cc1c[nH]c2ccccc12)NC(=O)c1cc2ccc(N3CCN(S(=O)(=O)C4CC4)CC3)cc2s1 (centres unmarked) [Example 44, 6-[4-(Cyclopropanesulfonyl)piperazine-1-yl]-N-[1-(1H-indol-3-yl)hexane-2-yl]-1-benzothiophene-2-carboxamide] | 89.7 | 
CCCCC(Cc1c[nH]c2ccccc12)NC(=O)c1cc2cnc(N3CCN(C)CC3)cc2s1 (centres unmarked) [Example 8, N-(1-(1H-indol-3-yl)hexane-2-yl)-6-(4-methylpiperazin-1-yl) thieno[3,2-c] pyridine-2-carboxamide] | 73.7 | 
CCCCC(Cc1c[nH]c2ccccc12)NC(=O)c1cc2cc(N3CCN(C)CC3)ccc2s1 (centres unmarked) [Example 7, N-(1-(1H-indol-3-yl)hexane-2-yl)-5-(4-methylpiperazine-1-yl) benzo[b]thiophene-2-carboxamide] | 71.5 | 
CCCCC(Cc1c[nH]c2ccc(F)cc12)NC(=O)c1cc2ccc(N3CCN(C)CC3)cc2s1 (centres unmarked) [Example 26, N-(1-(5-fluoro-1H-indole-3-yl)hexane-2-yl)-6-(4-methylpiperazine-1-yl) benzo [b] thiophene-2-carboxamide] | 93.3 | 
C/C=C\CC(Cc1c[nH]c2ccccc12)NC(=O)c1cc2ccc(N3CCN(C)CC3)cc2s1 (centres unmarked) [Example 35, (Z)—N-(1-(1H-indol-3-yl)-4-hexene-2-yl)-6-(4-methylpiperazin-1-yl) benzo[b]thiophene-2-carboxamide] | 85.4 | 
CCCCC(Cc1c[nH]c2ccccc12)NC(=O)c1cc2ccc(N3CCC4(CC3)CN(C3CCN(C)CC3)C4)cc2s1 (centres unmarked) [Example 21] | 78.2 | 
CC(C)CCC(Cc1c[nH]c2ccccc12)NC(=O)c1cc2ccc(N3CCN(C)CC3)cc2s1 (centres unmarked) [Example 33, N-(1-(1H-indol-3-yl)-5-methylhexane-2-yl)-6-(4-methylpiperazin-1-yl) benzo[b]thiophene-2-carboxamide] | 93.4 | 
